According to PubChem BioAssay AID1259407 (Chemical Carcinogenesis Research Information System (CCRIS), 2018):
The source made the active and inactive calls. The rule behind the calls is not given here.

Test system: CCRIS mutagenicity, Ames/micronucleus/aberration tests
Test: CCRIS mutagenicity studies
[1] = Test System: AMES SALMONELLA TYPHIMURIUM, Strain/Indicator: TA97, Metabolic Activation: HAMSTER, LIVER, S-9, AROCLOR 1254 (30%), Method: PREINCUBATION
[2] = Test System: AMES SALMONELLA TYPHIMURIUM, Strain/Indicator: TA97, Metabolic Activation: NONE, Method: PREINCUBATION
[3] = Test System: AMES SALMONELLA TYPHIMURIUM, Strain/Indicator: TA97, Metabolic Activation: RAT, LIVER, S-9, AROCLOR 1254 (30%), Method: PREINCUBATION
[4] = Test System: AMES SALMONELLA TYPHIMURIUM, Strain/Indicator: TA98, Metabolic Activation: HAMSTER, LIVER, S-9, AROCLOR 1254 (10%), Method: PREINCUBATION
[5] = Test System: AMES SALMONELLA TYPHIMURIUM, Strain/Indicator: TA98, Metabolic Activation: HAMSTER, LIVER, S-9, AROCLOR 1254 (30%), Method: PREINCUBATION
[6] = Test System: AMES SALMONELLA TYPHIMURIUM, Strain/Indicator: TA98, Metabolic Activation: NONE, Method: PREINCUBATION
[7] = Test System: AMES SALMONELLA TYPHIMURIUM, Strain/Indicator: TA98, Metabolic Activation: RAT, LIVER, S-9, AROCLOR 1254 (10%), Method: PREINCUBATION
[8] = Test System: AMES SALMONELLA TYPHIMURIUM, Strain/Indicator: TA98, Metabolic Activation: RAT, LIVER, S-9, AROCLOR 1254 (30%), Method: PREINCUBATION
[9] = Test System: AMES SALMONELLA TYPHIMURIUM, Strain/Indicator: TA100, Metabolic Activation: HAMSTER, LIVER, S-9, AROCLOR 1254 (10%), Method: PREINCUBATION
[10] = Test System: AMES SALMONELLA TYPHIMURIUM, Strain/Indicator: TA100, Metabolic Activation: NONE, Method: PREINCUBATION
[11] = Test System: AMES SALMONELLA TYPHIMURIUM, Strain/Indicator: TA100, Metabolic Activation: RAT, LIVER, S-9, AROCLOR 1254 (10%), Method: PREINCUBATION
[12] = Test System: AMES SALMONELLA TYPHIMURIUM, Strain/Indicator: TA1535, Metabolic Activation: NONE, Method: PREINCUBATION

Measured: mutagenic call

Nc1cc(Cl)ccc1Cl
inactive: Test System: AMES SALMONELLA TYPHIMURIUM, Strain/Indicator: TA97, Metabolic Activation: HAMSTER, LIVER, S-9, AROCLOR 1254 (10%), Method: PREINCUBATION inactive; negative | [1] inactive; negative | [2] inactive; negative | Test System: AMES SALMONELLA TYPHIMURIUM, Strain/Indicator: TA97, Metabolic Activation: RAT, LIVER, S-9, AROCLOR 1254 (10%), Method: PREINCUBATION inactive; negative | [3] inactive; negative | [4] inactive; negative | [5] inactive; negative | [6] inactive; negative | [7] inactive; negative | [8] inactive; negative | [9] inactive; negative | Test System: AMES SALMONELLA TYPHIMURIUM, Strain/Indicator: TA100, Metabolic Activation: HAMSTER, LIVER, S-9, AROCLOR 1254 (30%), Method: PREINCUBATION inactive; negative | [10] inactive; negative | [11] inactive; negative | Test System: AMES SALMONELLA TYPHIMURIUM, Strain/Indicator: TA100, Metabolic Activation: RAT, LIVER, S-9, AROCLOR 1254 (30%), Method: PREINCUBATION inactive; negative | Test System: AMES SALMONELLA TYPHIMURIUM, Strain/Indicator: TA1535, Metabolic Activation: HAMSTER, LIVER, S-9, AROCLOR 1254 (10%), Method: PREINCUBATION inactive; negative | Test System: AMES SALMONELLA TYPHIMURIUM, Strain/Indicator: TA1535, Metabolic Activation: HAMSTER, LIVER, S-9, AROCLOR 1254 (30%), Method: PREINCUBATION inactive; negative | [12] inactive; negative | Test System: AMES SALMONELLA TYPHIMURIUM, Strain/Indicator: TA1535, Metabolic Activation: RAT, LIVER, S-9, AROCLOR 1254 (10%), Method: PREINCUBATION inactive; negative | Test System: AMES SALMONELLA TYPHIMURIUM, Strain/Indicator: TA1535, Metabolic Activation: RAT, LIVER, S-9, AROCLOR 1254 (30%), Method: PREINCUBATION inactive; negative | Test System: UDS RODENT HEPATOCYTES, Strain/Indicator: THY INCORP (NON-S-PHASE), Metabolic Activation: NONE, Method: AUTORADIOGRAPHY inactive; negative

Cc1cccc(C)c1N
inactive: [1] inactive; negative | [2] inactive; negative | [3] inactive; negative | [4] inactive; negative | [5] inactive; negative | Test System: AMES SALMONELLA TYPHIMURIUM, Strain/Indicator: TA98, Metabolic Activation: HAMSTER, LIVER, S-9, AROCLOR 1254, Method: PREINCUBATION inactive; negative | [6] inactive; negative | [7] inactive; negative | [8] inactive; negative | Test System: AMES SALMONELLA TYPHIMURIUM, Strain/Indicator: TA98, Metabolic Activation: RAT, LIVER, S-9, AROCLOR 1254, Method: PREINCUBATION inactive; negative | Test System: AMES SALMONELLA TYPHIMURIUM, Strain/Indicator: TA100, Metabolic Activation: HAMSTER, LIVER, S-9, AROCLOR 1254 (5%), Method: PREINCUBATION inactive; negative | [9] inactive; negative | Test System: AMES SALMONELLA TYPHIMURIUM, Strain/Indicator: TA100, Metabolic Activation: HAMSTER, LIVER, S-9, AROCLOR 1254, Method: PREINCUBATION inactive; negative | [10] inactive; negative | Test System: AMES SALMONELLA TYPHIMURIUM, Strain/Indicator: TA100, Metabolic Activation: RAT, LIVER, S-9, AROCLOR 1254 (5 OR 30%), Method: PREINCUBATION inactive; negative | [11] inactive; negative | Test System: AMES SALMONELLA TYPHIMURIUM, Strain/Indicator: TA100, Metabolic Activation: RAT, LIVER, S-9, AROCLOR 1254, Method: PREINCUBATION inactive; negative | Test System: AMES SALMONELLA TYPHIMURIUM, Strain/Indicator: TA1535, Metabolic Activation: HAMSTER, LIVER, S-9, AROCLOR 1254 (5%), Method: PREINCUBATION inactive; negative | Test System: AMES SALMONELLA TYPHIMURIUM, Strain/Indicator: TA1535, Metabolic Activation: HAMSTER, LIVER, S-9, AROCLOR 1254, Method: PREINCUBATION inactive; negative | [12] inactive; negative | Test System: AMES SALMONELLA TYPHIMURIUM, Strain/Indicator: TA1535, Metabolic Activation: RAT, LIVER, S-9, AROCLOR 1254 (5%), Method: PREINCUBATION inactive; negative | Test System: AMES SALMONELLA TYPHIMURIUM, Strain/Indicator: TA1535, Metabolic Activation: RAT, LIVER, S-9, AROCLOR 1254 (10 OR 30%), Method: PREINCUBATION inactive; negative | Test System: AMES SALMONELLA TYPHIMURIUM, Strain/Indicator: TA1535, Metabolic Activation: RAT, LIVER, S-9, AROCLOR 1254, Method: PREINCUBATION inactive; negative | Test System: AMES SALMONELLA TYPHIMURIUM, Strain/Indicator: TA1537, Metabolic Activation: HAMSTER, LIVER, S-9, AROCLOR 1254 (10%), Method: PREINCUBATION inactive; negative | Test System: AMES SALMONELLA TYPHIMURIUM, Strain/Indicator: TA1537, Metabolic Activation: HAMSTER, LIVER, S-9, AROCLOR 1254, Method: PREINCUBATION inactive; negative | Test System: AMES SALMONELLA TYPHIMURIUM, Strain/Indicator: TA1537, Metabolic Activation: NONE, Method: PREINCUBATION inactive; negative | Test System: AMES SALMONELLA TYPHIMURIUM, Strain/Indicator: TA1537, Metabolic Activation: RAT, LIVER, S-9, AROCLOR 1254 (10%), Method: PREINCUBATION inactive; negative | Test System: AMES SALMONELLA TYPHIMURIUM, Strain/Indicator: TA1537, Metabolic Activation: RAT, LIVER, S-9, AROCLOR 1254, Method: PREINCUBATION inactive; negative
active: End Point: IN VITRO CHROMOSOMAL ABERRATIONS, Test System: CHINESE HAMSTER OVARY CELLS, Metabolic Activation: NONE active; positive; precipitation occurred at all doses | End Point: IN VITRO CHROMOSOMAL ABERRATIONS, Test System: CHINESE HAMSTER OVARY CELLS, Metabolic Activation: RAT, LIVER, S-9, AROCLOR 1254 active; positive; precipitation occurred at 1200 and 1300 ug/ml
